Where “and” joins values, the source holds several entries; their conditions need not be identical. Equal values may be shown once. Calls of active or inactive are those of the source.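 How the source made its calls: active means compound whose mean IC50 is 10 µM or lower in every cell protection panel where tested; inactive means the rest.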
Columns and labels:
[1] = test system: HL-1; experiment: cardiomyocyte survival under oxidative or metabolic stress – cell-based, panel, H9c2 and HL-1, ATP luminescence, set 2, SAR follow-up (AID 651871); settings: H9c2/HL-1 cardiomyocytes;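 further: cells exposed to stressor for 2 h before ATP readout; potency for protection of cells against peroxide damage not for cytotoxicity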
[2] = test system: H9c2; experiment: as above; settings: H9c2/HL-1 cardiomyocytes
[3] = 2-deoxyglucose stress, with 2-deoxyglucose, mean of runs
[4] = H2O2 oxidative stress, with H2O2, mean of runs

Row | SMILES | IC50 [1, 3] | IC50 [1, 4] | IC50 [2, 3] | IC50 [2, 4]
1 | COc1ccc2c(c1OC)C(=O)N1c3ccccc3C(=O)N(Cc3cccc(Cl)c3Cl)C21 (centres undefined) | 2.65 µM and 3.05 µM and > 79 µM (inactive) | > 79 µM (inactive) | 4.57 µM and 6.37 µM and > 79 µM (inactive) | 0.215 µM and 0.391 µM and 11.7 µM (inactive)
2 | CCOC(=O)c1cccc(NC(=O)CNC(=O)c2cc(-c3cc(OC)c(OC)c(OC)c3)nc3ccccc23)c1 | 2.9 µM | 3.41 µM | 2.72 µM | 0.28 µM
3 | COc1ccc2nc(-c3cc(OC)c(OC)c(OC)c3)cc(C(=O)NCC(=O)Nc3ccc(C(C)=O)cc3)c2c1 | 4.3 µM | 6.53 µM and 3.98 µM | 3.87 µM | 0.634 µM and 0.44 µM
4 | COc1cc(-c2cc(C(=O)Nc3cccc(C(=O)NCc4ccccc4)c3)c3ccccc3n2)cc(OC)c1OC |  | 3.97 µM |  | 0.411 µM
